Laboratory results as given in ChEMBL document CHEMBL5360531, “Pyrazolone derivatives as potent and selective small-molecule SIRT5 inhibitors” (Eur J Med Chem, 2023).

target: T1, NAD-dependent protein deacylase sirtuin-5, mitochondrial (Homo sapiens, UniProt Q9NXA8); assay: Inhibition of human SIRT5
T1 sequence (Q9NXA8 whole entry): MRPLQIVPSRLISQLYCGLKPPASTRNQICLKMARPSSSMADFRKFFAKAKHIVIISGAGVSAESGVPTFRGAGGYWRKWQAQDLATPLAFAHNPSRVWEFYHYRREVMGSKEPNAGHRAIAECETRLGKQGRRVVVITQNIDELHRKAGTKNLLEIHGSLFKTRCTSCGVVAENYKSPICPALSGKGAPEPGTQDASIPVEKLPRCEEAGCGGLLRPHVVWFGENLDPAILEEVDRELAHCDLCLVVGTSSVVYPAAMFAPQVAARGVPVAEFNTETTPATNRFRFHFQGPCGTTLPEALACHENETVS

Structure (SMILES) | IC50
N=C(N)NCCC[C@@H]1NC(=O)CCC(=O)NCCCC[C@@H](C(N)=O)NC(=O)[C@H](CCCCNC(=S)NCCC(=O)O)NC1=O | 2.2 µM

target: T1, NAD-dependent protein deacylase sirtuin-5, mitochondrial; assay: Inhibition of human SIRT5 by fluorescence based analysis

Structure (SMILES) | IC50
COc1ccc(-c2csc(N3N=C(C)/C(=C\c4ccc(C)cc4)C3=O)n2)cc1 | 36.8 µM
COC(=O)c1ccc(/C=C2/C(=O)N(c3nc(-c4ccc(Br)cc4)cs3)N=C2C)cc1 | 4.36 µM
COC(=O)c1ccc(/C=C2/C(=O)N(c3nc(-c4cccc(C(F)(F)F)c4)cs3)N=C2C)cc1 | 2.28 µM
COC(=O)c1ccc(/C=C2/C(=O)N(c3nc(-c4cccc(OC)c4)cs3)N=C2C)cc1 | 15.8 µM
CC1=NN(c2nc(-c3ccccc3F)cs2)C(=O)/C1=C/c1ccc(C#N)cc1 | 13.8 µM
CC1=NN(c2nc(-c3ccc(F)cc3)cs2)C(=O)/C1=C/c1ccc(Cl)cc1 | 6.28 µM
CC1=NN(c2nc(-c3ccc(C#N)cc3)cs2)C(=O)/C1=C/c1ccc(C(=O)O)cc1 | 1.05 µM
CC1=NN(c2nc(-c3cccc(F)c3)cs2)C(=O)/C1=C/c1ccc(C(=O)O)cc1 | 1.86 µM
CC1=NN(c2nc(-c3ccc(F)cc3)cs2)C(=O)/C1=C/c1ccc(C(=O)O)cc1 | 0.85 µM
COC(=O)c1ccc(/C=C2/C(=O)N(c3nc(-c4ccc(F)cc4)cs3)N=C2C)cc1 | 5.83 µM
COC(=O)c1ccc(/C=C2/C(=O)N(c3nc(-c4ccccc4OC)cs3)N=C2C)cc1 | 20.6 µM
COC(=O)c1ccc(/C=C2/C(=O)N(c3nc(-c4ccc(O)cc4)cs3)N=C2C)cc1 | 12.8 µM
COc1ccccc1-c1csc(N2N=C(C)/C(=C\c3ccc(C(=O)O)cc3)C2=O)n1 | 5.54 µM
CC1=NN(c2nc(-c3ccc(Br)cc3)cs2)C(=O)/C1=C/c1ccc(Cl)cc1 | 12.5 µM
CC1=NN(c2nc(-c3ccccc3F)cs2)C(=O)/C1=C/c1ccc(C(=O)O)cc1 | 4.18 µM
COC(=O)c1ccc(/C=C2/C(=O)N(c3nc(-c4cccc(C)c4)cs3)N=C2C)cc1 | 20.5 µM
CC1=NN(c2nc(-c3ccc(Cl)cc3)cs2)C(=O)/C1=C/c1ccc(Cl)cc1 | 7.56 µM

Structure (SMILES) | IC50
COC(=O)c1ccc(/C=C2/C(=O)N(c3nc(-c4ccc(Cl)cc4)cs3)N=C2C)cc1 | 2.56 µM
CC1=NN(c2nc(-c3cccc(C#N)c3)cs2)C(=O)/C1=C/c1ccc(C(=O)O)cc1 | 4.16 µM
COC(=O)c1ccc(/C=C2/C(=O)N(c3nc(-c4ccc(C(F)(F)F)cc4)cs3)N=C2C)cc1 | 2.84 µM
COC(=O)c1ccc(/C=C2/C(=O)N(c3nc(-c4cccc(C#N)c4)cs3)N=C2C)cc1 | 16.5 µM
COc1cccc(-c2csc(N3N=C(C)/C(=C\c4ccc(C(=O)O)cc4)C3=O)n2)c1 | 3.08 µM
COc1ccc(-c2csc(N3N=C(C)/C(=C\c4ccc(C(=O)O)cc4)C3=O)n2)cc1 | 1.82 µM
CC1=NN(c2nc(-c3ccc(C)cc3)cs2)C(=O)/C1=C/c1ccc(C(=O)O)cc1 | 1.28 µM
CC1=NN(c2nc(-c3ccc(O)cc3)cs2)C(=O)/C1=C/c1ccc(C(=O)O)cc1 | 1.92 µM
COC(=O)c1ccc(/C=C2/C(=O)N(c3nc(-c4ccc(C)cc4)cs3)N=C2C)cc1 | 6.54 µM
CC1=NN(c2nc(-c3cccc(C)c3)cs2)C(=O)/C1=C/c1ccc(C(=O)O)cc1 | 4.45 µM
CC1=NN(c2nc(-c3ccc(Br)cc3)cs2)C(=O)/C1=C/c1ccc(C(=O)O)cc1 | 1.72 µM
COC(=O)c1ccc(/C=C2/C(=O)N(c3nc(-c4ccc(C#N)cc4)cs3)N=C2C)cc1 | 5.26 µM
CC1=NN(c2nc(-c3ccc(C(F)(F)F)cc3)cs2)C(=O)/C1=C/c1ccc(C(=O)O)cc1 | 0.52 µM
COC(=O)c1ccc(/C=C2/C(=O)N(c3nc(-c4cccc(F)c4)cs3)N=C2C)cc1 | 10.6 µM
COc1ccc(-c2csc(N3N=C(C)/C(=C\c4ccc(Cl)cc4)C3=O)n2)cc1 | 22.6 µM
COC(=O)c1ccc(/C=C2/C(=O)N(c3nc(-c4ccccc4F)cs3)N=C2C)cc1 | 12.7 µM
COC(=O)c1ccc(/C=C2/C(=O)N(c3nc(-c4ccc(OC)cc4)cs3)N=C2C)cc1 | 10.2 µM
